Test results taken from publication PMC2954295 (Chemistry & Biology, 2010).

Legend:
human OGA (O-GlcNAcase) = molecular target: T1, human OGA (O-GlcNAcase) (Homo sapiens, UniProt O60502); assay: continuous UV/Vis assay with pNP-GlcNAc substrate, recombinant enzyme; format: biochemical
T1 sequence (O60502 1-916): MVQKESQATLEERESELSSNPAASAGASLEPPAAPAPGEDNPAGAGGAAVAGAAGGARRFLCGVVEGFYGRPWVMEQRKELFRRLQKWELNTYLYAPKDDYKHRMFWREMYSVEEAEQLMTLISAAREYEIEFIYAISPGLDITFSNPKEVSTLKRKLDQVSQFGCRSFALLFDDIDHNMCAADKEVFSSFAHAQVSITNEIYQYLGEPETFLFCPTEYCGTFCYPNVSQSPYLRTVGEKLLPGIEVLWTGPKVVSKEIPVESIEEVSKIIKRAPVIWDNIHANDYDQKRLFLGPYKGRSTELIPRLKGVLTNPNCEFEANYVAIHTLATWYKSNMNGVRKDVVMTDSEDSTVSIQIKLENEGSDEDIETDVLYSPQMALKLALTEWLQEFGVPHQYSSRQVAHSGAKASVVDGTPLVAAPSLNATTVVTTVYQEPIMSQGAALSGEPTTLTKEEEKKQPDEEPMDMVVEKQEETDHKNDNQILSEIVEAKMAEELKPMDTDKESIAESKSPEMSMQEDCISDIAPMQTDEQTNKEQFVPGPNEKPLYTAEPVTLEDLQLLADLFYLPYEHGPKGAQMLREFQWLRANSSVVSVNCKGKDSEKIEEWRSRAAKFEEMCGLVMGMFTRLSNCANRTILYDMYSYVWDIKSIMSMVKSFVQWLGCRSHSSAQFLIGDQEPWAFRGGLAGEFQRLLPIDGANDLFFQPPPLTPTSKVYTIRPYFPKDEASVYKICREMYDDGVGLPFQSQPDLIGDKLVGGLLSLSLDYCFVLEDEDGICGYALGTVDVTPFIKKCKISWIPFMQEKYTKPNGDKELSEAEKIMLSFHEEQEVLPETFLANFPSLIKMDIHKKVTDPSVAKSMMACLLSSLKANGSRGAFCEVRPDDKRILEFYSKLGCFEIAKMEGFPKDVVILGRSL

human HexB = human HexB (Homo sapiens, UniProt P07686); assay: inhibition kinetics with pNP-GlcNAc substrate, Lineweaver-Burk; format: biochemical
human HexB, sequence (P07686 122-311): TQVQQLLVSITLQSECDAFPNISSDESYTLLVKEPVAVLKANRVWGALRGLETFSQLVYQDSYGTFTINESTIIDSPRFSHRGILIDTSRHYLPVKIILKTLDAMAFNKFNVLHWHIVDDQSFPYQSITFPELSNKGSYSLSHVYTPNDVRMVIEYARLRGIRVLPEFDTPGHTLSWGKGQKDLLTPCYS
human HexB, sequence (P07686 315-556): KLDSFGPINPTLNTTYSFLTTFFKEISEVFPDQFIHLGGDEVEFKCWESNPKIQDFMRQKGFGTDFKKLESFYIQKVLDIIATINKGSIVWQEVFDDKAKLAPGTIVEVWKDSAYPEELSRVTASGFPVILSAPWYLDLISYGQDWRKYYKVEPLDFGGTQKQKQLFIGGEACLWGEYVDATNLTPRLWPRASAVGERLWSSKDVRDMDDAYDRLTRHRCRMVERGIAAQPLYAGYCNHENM

Structure (SMILES): CC(=O)N[C@H]1CN2CC[C@H](O)[C@@H]2[C@@H](O)[C@@H]1O [6-Ac-Cas]
- Ki (human OGA (O-GlcNAcase)): 300 nM
- Ki (human HexB): 250 nM
